{"source": "patent US10039779B2", "about": "“Combination formulation of two antiviral compounds” (priority 2013, dated 2018)", "assay_type_in_all_cases": "physicochemical", "key": {"[1]": {"test": "pH-solubility profile and solubility in simulated intestinal media", "conditions": "for solubility at 48 h: thermodynamic from solid", "experimental": "Excess solid ledipasvir was added to a range of pH-adjusted aqueous solutions (titrated with HCl or NaOH) and stirred for 48 hours at room temperature. The suspensions were then filtered through regenerated cellulose syringe filters. The pH value of the supernatant was measured, and the supernatant was diluted as appropriate with 50:50 H2O+0.1% TFA:ACN and assayed for ledipasvir content by the HPLC-UV method.\nSolubility of ledipasvir amorphous free base was assessed in three types of simulated intestinal fluids at pH 6.5 or pH 5.0; and simulated intestinal bile salt and lecithin mixture (SIBLM), pH 6.4. Excess solid ledipasvir was added to the respective SIFs and stirred for 48 hours at room temperature. The resulting suspensions were then filtered through regenerated cellulose syringe filters. The supernatant was diluted as appropriate with 50:50 H2O+0.1% TFA:ACN and assayed for ledipasvir content by the HPLC-UV method."}, "[2]": {"test": "Excipient and organic solvent solubility", "conditions": "thermodynamic from solid", "experimental": "Solubility of ledipasvir amorphous free base and ledipasvir crystalline D-tartrate was measured in a wide range of pharmaceutically acceptable solvents, including cosolvents, surfactants, fatty acids, triglycerides, or blends thereof. Material was weighed into scintillation vials and stirred for up to 48 hours at room temperature. In many cases, solubility was higher than the amount of solid used in the sample, thus many results are reported as ‘greater than’ or ‘greater than or equal to’ if the concentration was not quantitatively determined by HPLC-UV."}, "[3]": {"test": "Aqueous solubility with 0.1% w/w surfactants and polymers; dissolution behavior of forms", "conditions": "for solubility: thermodynamic from solid", "experimental": "Excess solid was added to aqueous buffered solutions; samples were withdrawn at predetermined intervals (2, 5, 8, 10, 15, 20, 30, 45, 60 minutes, and 24 hours), filtered through regenerated cellulose filters, and diluted for concentration measurement by the HPLC-UV method."}}, "data": [{"smiles": "COC(=O)N[C@H](C(=O)N1CC2(CC2)C[C@H]1c1ncc(-c2ccc3c(c2)C(F)(F)c2cc(-c4ccc5nc([C@@H]6[C@H]7CC[C@H](C7)N6C(=O)[C@@H](NC(=O)OC)C(C)C)[nH]c5c4)ccc2-3)[nH]1)C(C)C", "note": "[Ledipasvir amorphous free base]", "values": [{"measurement": "solubility", "setting": "[1]; Aqueous, pH 1.6 (HCl), room temperature", "value": 6855, "unit": "µg/mL"}, {"measurement": "solubility", "setting": "[1]; Aqueous, pH 2.3 (HCl), room temperature", "value": 1096, "unit": "µg/mL"}, {"measurement": "solubility at 48 h", "setting": "[1]; FaSSIF, pH 6.5, fassif, FaSSIF pH = 6.5, room temperature", "value": 25, "unit": "µg/mL"}, {"measurement": "solubility at 48 h", "setting": "[1]; FeSSIF, pH 5, fessif, FeSSIF pH = 5.0, room temperature", "value": 230, "unit": "µg/mL"}, {"measurement": "solubility at 48 h", "setting": "[1]; SIBLM (simulated intestinal bile salt and lecithin mixture), pH 6.4, fassgf or other biorelevant, SIBLM pH = 6.4, room temperature", "value": 232, "unit": "µg/mL"}, {"measurement": "intrinsic solubility (S0)", "setting": "[1]; aqueous, neutral form (pH>5), room temperature", "value": "approximately 0.04 μg/mL"}, {"measurement": "solubility at 48 h", "setting": "[1]; pH-adjusted aqueous solution (HCl), pH 1.6, aqueous buffer, Aqueous, pH 1.6 (HCl), room temperature", "value": "~7000", "unit": "µg/mL"}, {"measurement": "solubility at 48 h", "setting": "[1]; pH-adjusted aqueous solution (HCl), pH 2.3, aqueous buffer, Aqueous, pH 2.3 (HCl), room temperature", "value": 1000, "unit": "µg/mL"}, {"measurement": "solubility at 48 h", "setting": "[1]; pH-adjusted aqueous solution, pH 3.1, aqueous buffer, Aqueous, pH 3.1 (HCl), room temperature", "value": 13.2, "unit": "µg/mL"}, {"measurement": "solubility at 48 h", "setting": "[1]; pH-adjusted aqueous solution, pH 4.1, aqueous buffer, Aqueous, pH 4.1 (HCl), room temperature", "value": 0.11, "unit": "µg/mL"}, {"measurement": "solubility at 48 h", "setting": "[1]; pH-adjusted aqueous solution, pH 5.5, aqueous buffer, Aqueous, pH 5.5 (HCl), room temperature", "value": 0.03, "unit": "µg/mL"}, {"measurement": "solubility at 48 h", "setting": "[1]; pH-adjusted aqueous solution, pH 6.2, water, Aqueous, pH 6.2 (unaltered), room temperature", "value": 0.03, "unit": "µg/mL"}, {"measurement": "solubility at 48 h", "setting": "[1]; pH-adjusted aqueous solution, pH 7.2, aqueous buffer, Aqueous, pH 7.2 (NaOH), room temperature", "value": 0.01, "unit": "µg/mL"}, {"measurement": "increase of solubility in SIBLM over FaSSIF", "setting": "[1]; room temperature", "value": "approximately 10 fold"}, {"measurement": "solubility", "setting": "[2]; oil or lipid", "value": "> 500000", "unit": "µg/mL"}, {"measurement": "solubility", "setting": "[2]; pH 2.5, aqueous with cosolvent or surfactant or cyclodextrin", "value": 25000, "unit": "µg/mL"}, {"measurement": "dissolution behavior relative to other ledipasvir forms", "setting": "[3]; aqueous buffered solutions", "value": "faster than that of the crystalline free base and acetone solvate forms"}, {"measurement": "solubility", "setting": "[3]; aqueous citrate buffer with excipient, pH 2, aqueous with cosolvent or surfactant or cyclodextrin, 0.1% w/w PVP (povidone), pH 2", "value": 5470, "unit": "µg/mL"}, {"measurement": "solubility", "setting": "[3]; aqueous citrate buffer with excipient, pH 2, aqueous with cosolvent or surfactant or cyclodextrin, 0.1% w/w PVP/VA (copovidone), pH 2", "value": 6730, "unit": "µg/mL"}, {"measurement": "solubility", "setting": "[3]; aqueous citrate buffer with excipient, pH 2, aqueous with cosolvent or surfactant or cyclodextrin, 0.1% w/w Sodium lauryl sulfate, pH 2", "value": 50, "unit": "µg/mL"}, {"measurement": "solubility", "setting": "[3]; aqueous citrate buffer with excipient, pH 5, aqueous with cosolvent or surfactant or cyclodextrin, 0.1% w/w PVP (povidone), pH 5", "value": 0.4, "unit": "µg/mL"}, {"measurement": "solubility", "setting": "[3]; aqueous citrate buffer with excipient, pH 5, aqueous with cosolvent or surfactant or cyclodextrin, 0.1% w/w PVP/VA (copovidone), pH 5", "value": 1, "unit": "µg/mL"}, {"measurement": "solubility", "setting": "[3]; aqueous citrate buffer with excipient, pH 5, aqueous with cosolvent or surfactant or cyclodextrin, 0.1% w/w Sodium lauryl sulfate, pH 5", "value": 243, "unit": "µg/mL"}, {"measurement": "solubility", "setting": "[3]; aqueous citrate buffer, no excipient, pH 2, aqueous buffer, pH 2, room temperature", "value": 4940, "unit": "µg/mL"}, {"measurement": "solubility", "setting": "[3]; aqueous citrate buffer, no excipient, pH 5, aqueous buffer, pH 5, room temperature", "value": 0.1, "unit": "µg/mL"}, {"measurement": "solubility", "setting": "[3]; pH 2, aqueous with cosolvent or surfactant or cyclodextrin, 0.1% w/w Cremaphor EL, pH 2", "value": 9110, "unit": "µg/mL"}, {"measurement": "solubility", "setting": "[3]; pH 2, aqueous with cosolvent or surfactant or cyclodextrin, 0.1% w/w HPC (hydroxypropylcellulose), pH 2", "value": 4670, "unit": "µg/mL"}, {"measurement": "solubility", "setting": "[3]; pH 2, aqueous with cosolvent or surfactant or cyclodextrin, 0.1% w/w HPMC (hydroxymethylcellulose), pH 2", "value": 5270, "unit": "µg/mL"}, {"measurement": "solubility", "setting": "[3]; pH 2, aqueous with cosolvent or surfactant or cyclodextrin, 0.1% w/w Labrasol, pH 2", "value": 7440, "unit": "µg/mL"}, {"measurement": "solubility", "setting": "[3]; pH 2, aqueous with cosolvent or surfactant or cyclodextrin, 0.1% w/w Poloxamer 188, pH 2", "value": 7190, "unit": "µg/mL"}, {"measurement": "solubility", "setting": "[3]; pH 2, aqueous with cosolvent or surfactant or cyclodextrin, 0.1% w/w Polysorbate 80, pH 2", "value": 9270, "unit": "µg/mL"}, {"measurement": "solubility", "setting": "[3]; pH 5, aqueous with cosolvent or surfactant or cyclodextrin, 0.1% w/w Cremaphor EL, pH 5", "value": 69.9, "unit": "µg/mL"}, {"measurement": "solubility", "setting": "[3]; pH 5, aqueous with cosolvent or surfactant or cyclodextrin, 0.1% w/w HPC (hydroxypropylcellulose), pH 5", "value": 0.1, "unit": "µg/mL"}, {"measurement": "solubility", "setting": "[3]; pH 5, aqueous with cosolvent or surfactant or cyclodextrin, 0.1% w/w HPMC (hydroxymethylcellulose), pH 5", "value": 0.3, "unit": "µg/mL"}, {"measurement": "solubility", "setting": "[3]; pH 5, aqueous with cosolvent or surfactant or cyclodextrin, 0.1% w/w Poloxamer 188, pH 5", "value": 0.5, "unit": "µg/mL"}, {"measurement": "solubility", "setting": "[3]; pH 5, aqueous with cosolvent or surfactant or cyclodextrin, 0.1% w/w Polysorbate 80, pH 5", "value": 62.4, "unit": "µg/mL"}]}]}
